Data taken from patent US10172951B2, “Dendrimer based nanodevices for therapeutic and imaging purposes” (priority 2009, dated 2019).
Numbered stars: 1 amine (or outer) side, 2 acyl side, 3 side chain; on linkers, the order of the positions; unused ones are H or OH. Square brackets hold non-standard residues; d marks the D form. Peptide text beside a SMILES is read from it. γGlu = O=C(O)[C@H](CCC(=O)[*:2])N[*:1]

Tests used:
BV-2 cells = test: TNF-α release assay (ELISA), PEG-NAC conjugates; type: cell-based, mouse; details: 5 mM
Protocol: (A) BV-2 cells (passage 22) were co-treated with 100 ng/mL of LPS and the indicated concentration of NAC, 6-Arm-PEG-S—S-NAC conjugate (1) and its correspond 6-Arm-PEG-SH for 72 hours (B) BV-2 cells were co-treated with 100 ng/mL of LPS and the indicated concentration of NAC, 8-Arm-PEG-S—S-NAC conjugate (3) and its correspond PEG for 72 hours. Three samples were in each group. TNF-α in culture medium was measured using mouse TNF-α ELISA Kit.
The procedure for cell culture and drug treatment was the same as described in an earlier example. TNF-α secretion was measured using an ELISA Kit according to the manufacturer's instruction. In brief, 50 μL of supernatant from each sample was added in 96-well ELISA plates. Biotinylated antibody reagent was applied to each well and incubated the plate at room temperature for 2 hours. After washing the plate with PBS-Tween 20, diluted streptavidin-HRP was added, and the plate was incubated at room temperature for 30 min. After washing the plate, premixed TMB substrate solution was added. The plate was developed in the dark for 30 min, and read at 450 nm using a microplate reader. The concentration of TNF-α was calculated using murine rTNF-α as standard.

microglial cells = test: Toxicity of PEG-NAC conjugates to microglial cells; type: cell-based; details: 0.008-0.8 mM
[1] = Inhibition of GSH depletion by PEG-NAC conjugates; type: cell-based; details: equimolar NAC 0.5 mM
[2] = In vitro NAC release from 6-Arm and 8-Arm PEG-S-S-NAC conjugates in PBS with GSH; type: physicochemical; details: intracellular GSH concentration (2 and 10 mM), within 2 hours
Protocol: The in vitro release of NAC from the 6-Arm-PEG-S—S-NAC and 8-Arm-PEG-S—S-NAC conjugates was performed in PBS (pH=7.4) at 37° C. Appropriate amounts of PEG-S—S-NAC conjugate were dissolved in release media (PBS buffered) to form a solution of 1 mg/ml into eppendorf tube and GSH was added to the conjugates to form 10 mM, 2 mM, or 2 μM concentrations and to initiate the release of NAC. All samples were run as triplicates for statistical analysis. As control samples, conjugates were analyzed in PBS buffered media in the absence of reducing agents. The solutions were kept at 37° C. and stirred continuously. At predetermined time intervals, 30 μL of samples were withdrawn and immediately analyzed release of NAC and GS-NAC with RP-HPLC and the concentrations of analytes were determined by using appropriate calibrations prepared under same conditions.

Solubility in PBS/H2O = type: physicochemical
[3] = tested on: neuroinflammation in newborn rabbit model of cerebral palsy; test: In vivo efficacy in newborn rabbit model of cerebral palsy (maternal endotoxin)
Protocol: New Zealand White rabbits (CoVance Research Products Inc., Kalamazoo, Mich.) with timed pregnancies confirmed with breeders (having a history of delivering 7-11 kits per litter) underwent laparotomy under general anesthesia (2-3% isoflurane by mask) on gestational day 28 (E28, term pregnancy is 31-32 days). 1 mL of saline for the control group (n=6) or 1 mL of saline containing 20 μg/kg of LPS (Escherichia coli serotype O127: B8 from Sigma-Aldrich, St Louis, Mo.) for the endotoxin group (n=6), was equally divided and injected into the uterine wall using a 27 gauge needle between the fetuses taking care not to enter the amniotic sac. This ensured that all the kits were exposed to the same amount of endotoxin. 0.5% NaHCO3 was infused at end of surgery and additional dose NaHCO3 was given at 2 hour after surgery according blood gas.
The following animal groups were enrolled and used for this example: • Group 1: Pups exposed to 20μ/kg E. Coli LPS in utero treated with saline I.V. (200 ul), Observe for 5 days (N=5-7) • Group 2: Pups exposed to 20μ/kg E. Coli LPS in utero treated with NAC I.V. (200 ul), single dose 10 mg/kg. Observe for 5 days (N=5-7) • Group 3: Pups exposed to 20μ/kg E. Coli LPS in utero treated with NAC I.V. (200 ul), single dose 100 mg/kg. Observe for 5 days (N=5-7) • Group 4: Pups exposed to 20μ/kg E. Coli LPS in utero treated with G4-PAMAM-S—S-NAC I.V (200 ul), single dose 1 mg/kg (based on preliminary data). […]
All live postnatal day 1 (PND1) control and endotoxin kits from four consecutive litters in each group were tested to reduce the risk of selection bias. The rabbit kits were assessed and scored for behavioral testing, as described by Derrick et al. Briefly, the kits were videotaped and scored on a scale of 0 (worst) to 3 (best) by two blinded observers for (1) posture (ability to maintain prone posture), (2) righting reflex (ability to right itself from supine to prone position for 10 attempts), (3) activity and locomotion on a flat surface (assessed by grading the quality, intensity, and duration of spontaneous movement of the head and front and back legs), (4) ability to move in a straight line and in circles, (5) coordination of suck and swallow assessed by feeding the rabbit kits artificially with formula from a syringe with a dropper, and (6) ability to move head during feeding (scored from 0-3 in which 0 is no movement of head and 3 is forceful movement of head and body). The tone on passive flexion and extension was assessed using the scoring based on the Ashworth scale, as described by Derrick et al, in which 0 indicated no increase in tone and 4 indicated the limb was rigid in flexion or extension. […]
secondary to maternal endotoxin administration were treated with a single dose of either PBS, NAC 100mg/kg, D-NAC 1 mg/kg or 10mg/kg, or dendrimer alone on day 1of life (31 days post-conception). […] Animals were video-taped for 10 minutes and were scored by two observers in a blinded manner. Scores were based on the maximum number of steps taken without falls (scored from 0-4) and number of hops without falls (scored from 0-4) in one minute of continuous activity. […]

[4] = Stability of fluorophore-dendrimer conjugates in PBS (HPLC); type: physicochemical; details: PBS (pH 7.4), after 72 hours
From the text: The FITC-labeled compound (G4-PAMAM-O-GABA-NH-FITC) was purified by dialysis (membrane cutoff 1000 Da) against DMSO in dark by replacing DMSO, to remove un-reacted compounds. Purity of G4-PAMAM-O-GABA-NH-FITC conjugate was confirmed by HPLC using fluorescent detector (λex=495 nm/λem=521 nm).
G4-PAMAM-O-GABA-NH2 dendrimer was reacted with the Alexa 488 carboxylic acid succinimidyl ester (Scheme-6). The N-succinimidyl activated ester of Alexa 488 couples to the terminal primary amines to yield amide-linked G4-PAMAM-O-GABA-Alexa conjugate. The formation of conjugate was confirmed by HPLC (FIG. 89) using florescent detector (λex=495 nm/λem=521 nm). […] The absence of any other peak in chromatogram after dialysis of product confirms the absence of free alexa. […] The dendrimer alexa conjugate was prepared for enhanced histological visualization of samples as confocal imaging causes quenching and also to match with the intensities of other alexa conjugated secondary antibodies.

[5] = Dynamic light scattering size; type: physicochemical; details: PBS pH 7.4, 37° C.
Protocol: Dynamic light scattering (DLS) analyses were performed using a Malvern Instruments Zetasizer Nano ZEN3600 instrument (Westborough, Mass.) with reproducibility being verified by collection and comparison of sequential measurements. G4-PAMAM-O-GABA-NH-FITC and G4-PAMAM-O-GABA-NH-Alexa conjugate samples were prepared using PBS pH=7.4. DLS measurements were performed at a 90° scattering angle at 37° C. Z-average sizes of three sequential measurements were collected and analyzed.

6 Arm-PEG-S—S-NAC Conjugate [6-arm-PEG-S—S-NAC]
inhibition of TNF-α production (BV-2 cells): 70%
toxicity to the microglial cells (microglial cells): nontoxic
inhibition of GSH depletion versus free NAC [1]: more efficient
NAC released [2]: 74%

CC(=O)N[C@@H](CCC(=O)N[C@@H](CS)C(=O)NCC(=O)O)C(=O)O [GS-S-NAC, N-Acetyl-glutathione] (Ac-[γGlu]-Cys-Gly-OH)
Solubility in PBS/H2O (Solubility in PBS/H2O): Soluble

8 Arm-PEG-S—S-NAC Conjugate [8-arm-PEG-S—S-NAC]
inhibition of TNF-α production (BV-2 cells): 70%
toxicity to the microglial cells (microglial cells): nontoxic
inhibition of GSH depletion versus free NAC [1]: more efficient
NAC released [2]: 74%

PAMAM-O-GABA-NH—CO-Ethyl-S—S-NAC [Dendrimer-NAC]
suppression of NF-κB ([3]; 1 mg/kg single dose on PND-1, hippocampus PND 5): as effective as 100 mg/kg of NAC alone
suppression of IL-6 relative to free drug ([3]; hippocampus): 10-100 times
suppression of TNF-alpha mRNA expression relative to free drug ([3]; hippocampus, 5 days of age): 10-100 times
effect on myelination compared to the drug alone ([3]; rabbit, in vivo): increased myelination
efficacy relative to free NAC ([3]; single i.v. administration): ≤ 100 times

G4-PAMAM-O-GABA-NH-Alexa-488
stability of the conjugate [4]: alexa was not released from the conjugate
size (DLS) [5]: 5.6 nm
